Experimental findings from ChEMBL document CHEMBL1201862, “PubChem BioAssay data set” (2004) are described below.

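1) Cells in 96-well plates. 2) Compound, 48 h, 5 concentrations. 3) Linear interpolation between surrounding doses. 4) Unreached endpoint = highest concentration. GI50 = concentration required for 50% inhibition of growth.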 Calls of active or inactive are those of the source. No stated cut-off is given here; in the data, active = GI50 up to about 1.1 µM and inactive = higher. Bounds are passed on as bounds.

Test systems include MCF7; SR; SF-295; M14; SW-620; DU-145; HOP-92; LOX IMVI; KM12; ACHN; SNB-75; UO-31; MDA-MB-231; 786-0; SN12C; NCI/ADR-RES; SF-539; OVCAR-4; CAKI-1; HL-60.
Test in all cases: DTP human tumour cell line panel, 48 h

The GI50 is the concentration that inhibits growth by half. With `COc1cc(NP(=O)(Oc2ccccc2)Oc2ccccc2)ccc1Nc1c2ccccc2nc2c1[nH]c1ccccc12`, the 50% growth inhibitory concentration (GI50) in the test with MCF7 was 0.092 µM (active); in the test with SR it was < 0.0158 µM (active); in the test on SF-295, 0.344 µM (active); with M14 it was 0.891 µM (active); in the test with SW-620, 1.22 µM (inactive); in the test on DU-145 it was 0.286 µM (active). For the same compound, the 50% growth inhibitory concentration (GI50) with HOP-92 is 0.933 µM (active); in the test on LOX IMVI, 0.598 µM (active); in the test on KM12, 2.62 µM (inactive); with ACHN, 0.221 µM (active); in the test on SNB-75, 0.766 µM (active); in the test on UO-31, 0.617 µM (active). In addition, the GI50 in the test on MDA-MB-231 was 4.68 µM (inactive); with 786-0, 0.278 µM (active); in the test with SN12C it was 0.327 µM (active); with NCI/ADR-RES, 1.65 µM (inactive); in the test on SF-539, 0.36 µM (active); in the test on OVCAR-4, 3.22 µM (inactive). In addition, the 50% growth inhibitory concentration (GI50) in the test with CAKI-1 was 0.261 µM (active).

`CCOP(=O)(OCC)/C(=C\n1ccc(=O)[nH]c1=S)C(=O)OC`: the GI50 with MCF7, with SR, with SF-295, with M14, with SW-620 and with DU-145 was > 100 µM (inactive) in each case. In addition, the GI50 in the test on LOX IMVI, with KM12, in the test on ACHN, with SNB-75, in the test with HL-60 and in the test on UO-31 was > 100 µM (inactive) throughout. In addition, the GI50 in the test with MDA-MB-231, in the test with 786-0, with SN12C, in the test with NCI/ADR-RES, with SF-539 and with OVCAR-4 was > 100 µM (inactive) each time. In the test on CAKI-1, the GI50 was > 100 µM (inactive).

Regarding `O=C(Nc1cccc([N+](=O)[O-])c1)c1nnn(-c2cccc([N+](=O)[O-])c2)c1O`, the GI50 in the test on MCF7, with SR, in the test on SF-295, with M14, in the test with SW-620 and in the test on DU-145 was > 100 µM (inactive) each time. Also, the GI50 in the test with LOX IMVI is > 100 µM (inactive); in the test with KM12, > 100 µM (inactive); in the test on ACHN it was > 100 µM (inactive); in the test on SNB-75 it was > 100 µM (inactive); in the test with HL-60, > 100 µM (inactive); in the test with UO-31, 67.5 µM (inactive). Moreover, the GI50 in the test on MDA-MB-231 is > 100 µM (inactive); in the test on 786-0 it was > 100 µM (inactive); in the test on SN12C, > 100 µM (inactive); in the test with NCI/ADR-RES, > 100 µM (inactive); in the test on SF-539, 0.0322 µM (active); in the test with CAKI-1 it was > 100 µM (inactive).

Take `CCOC(=O)N/N=C(\Cc1ccccc1)OCC`: the GI50 with MCF7, with SR, with SF-295, in the test on M14, with SW-620 and with DU-145 was > 100 µM (inactive) in each case. The GI50 in the test on HOP-92, with LOX IMVI, with KM12, with ACHN, in the test on SNB-75 and with UO-31 was > 100 µM (inactive) throughout. In addition, the GI50 with MDA-MB-231, with 786-0, in the test with SN12C, with NCI/ADR-RES, with SF-539 and in the test on OVCAR-4 was > 100 µM (inactive) each time.

As for `CC1=CC(=O)C(=C(C)C)CC1`, the GI50 in the test on MCF7 is > 100 µM (inactive); in the test on SR, 48 µM (inactive); in the test on SF-295, > 100 µM (inactive); in the test on M14, > 100 µM (inactive); in the test on DU-145, > 100 µM (inactive); in the test on LOX IMVI, > 100 µM (inactive). The GI50 is > 100 µM (inactive) in the test with KM12; > 100 µM (inactive) in the test on ACHN; > 100 µM (inactive) with SNB-75; 53.6 µM (inactive) in the test on HL-60; > 100 µM (inactive) in the test on UO-31; > 100 µM (inactive) in the test on MDA-MB-231. For the same compound, the GI50 in the test on 786-0, in the test on SN12C, in the test on NCI/ADR-RES, in the test with OVCAR-4 and in the test with CAKI-1 was > 100 µM (inactive) throughout.

As to `O=C1N=C(c2ccccc2)OC1C(=O)c1ccccc1` (configuration not stated), the GI50 in the test on MCF7, in the test on SR, in the test on SF-295, with M14, in the test with SW-620 and in the test on DU-145 was > 100 µM (inactive) throughout. The GI50 in the test with LOX IMVI, in the test on KM12, with ACHN, in the test on SNB-75, in the test on HL-60 and with UO-31 was > 100 µM (inactive) throughout. Moreover, the GI50 in the test with MDA-MB-231, in the test with 786-0, with SN12C, in the test with NCI/ADR-RES, in the test on OVCAR-4 and in the test on CAKI-1 was > 100 µM (inactive) throughout.

For `COC1/C=C/O[C@@]2(C)Oc3c(C)c(O)c4c(O)c(cc(O)c4c3C2=O)NC(=O)/C(C)=C\C=C\[C@H](C)C(O)[C@@H](C)[C@@H](O)[C@@H](C)[C@H](OC(C)=O)[C@@H]1C` (some centres not stated), the GI50 was 10.2 µM (inactive) with MCF7; 6.15 µM (inactive) with SR; 94.8 µM (inactive) in the test on SF-295; 16.1 µM (inactive) with M14; 24 µM (inactive) in the test on DU-145; 10.2 µM (inactive) in the test on HOP-92. The GI50 is 14 µM (inactive) in the test with LOX IMVI; 27.2 µM (inactive) with KM12; 19.4 µM (inactive) with ACHN; 36.8 µM (inactive) with SNB-75; 51.3 µM (inactive) in the test on UO-31; 23.3 µM (inactive) in the test with MDA-MB-231. The GI50 in the test on 786-0 is 15.2 µM (inactive); with SN12C, 14.1 µM (inactive); in the test on NCI/ADR-RES, 32.4 µM (inactive); in the test on SF-539, 25.9 µM (inactive); in the test with OVCAR-4, 13.1 µM (inactive); in the test with CAKI-1, 37.9 µM (inactive).

For `O=C(N/N=C/c1ccc(O)cc1)NNCCO`, the GI50 with MCF7, in the test with SR, in the test on SF-295, with M14, in the test with SW-620 and in the test with DU-145 was > 100 µM (inactive) in each case. The GI50 was > 100 µM (inactive) in the test on KM12; 50.5 µM (inactive) in the test on SNB-75; > 100 µM (inactive) in the test on HL-60; > 100 µM (inactive) in the test on UO-31; > 100 µM (inactive) in the test on MDA-MB-231; > 100 µM (inactive) in the test with 786-0. For the same compound, the GI50 in the test on SN12C, in the test on NCI/ADR-RES, in the test with SF-539 and in the test on CAKI-1 was > 100 µM (inactive) throughout.

For `COc1ccc2c(c1)C1OCCNC1CC2` (configuration not stated), the GI50 in the test with MCF7, in the test on SR, with SF-295, with M14, with SW-620 and in the test on DU-145 was > 100 µM (inactive) in each case. Besides, the GI50 in the test on LOX IMVI, in the test on KM12, in the test with ACHN, in the test on SNB-75, in the test on HL-60 and with UO-31 was > 100 µM (inactive) throughout. The GI50 in the test with MDA-MB-231, in the test on 786-0, in the test with SN12C, with NCI/ADR-RES, with SF-539 and in the test on CAKI-1 was > 100 µM (inactive) throughout.

Take `CC1(C)CC(=O)C(=CNC(=O)c2ccncc2)C(=O)C1`: the GI50 in the test with MCF7, in the test on SF-295, in the test with M14, in the test with SW-620, in the test with DU-145 and in the test on HOP-92 was > 100 µM (inactive) in each case. In addition, the GI50 is > 100 µM (inactive) in the test on LOX IMVI; > 100 µM (inactive) in the test on KM12; > 100 µM (inactive) in the test with ACHN; > 100 µM (inactive) with SNB-75; 71.3 µM (inactive) in the test on HL-60; > 100 µM (inactive) in the test with UO-31. For the same compound, the GI50 with MDA-MB-231, in the test with 786-0, in the test on SN12C, in the test on NCI/ADR-RES, in the test on SF-539 and in the test on OVCAR-4 was > 100 µM (inactive) throughout. Also, the GI50 in the test with CAKI-1 is > 100 µM (inactive).

In the case of `O=C(Cc1ccccc1)c1ccc2[nH]c(=O)oc2c1`, the GI50 was 43.5 µM (inactive) in the test on MCF7; 38.3 µM (inactive) with SR; 38.2 µM (inactive) in the test with SF-295; 47 µM (inactive) in the test with M14; 52.1 µM (inactive) with SW-620; 62.2 µM (inactive) with DU-145. Besides, the GI50 with LOX IMVI is 52.1 µM (inactive); with KM12, 19 µM (inactive); with ACHN it was 41.4 µM (inactive); with SNB-75 it was 0.126 µM (active); in the test on HL-60 it was 50.4 µM (inactive); in the test with MDA-MB-231, 36.1 µM (inactive). The GI50 with 786-0 was 87.3 µM (inactive); in the test with SN12C it was > 100 µM (inactive); in the test with NCI/ADR-RES, 18.4 µM (inactive); with SF-539, 32.2 µM (inactive); with CAKI-1, 59.6 µM (inactive).
